Measured values reported in patent US7872122B2, “Process for making Biolimus A9” (Chunghwa Chemical Synthesis & Biotech Co., Ltd., priority 2009, dated 2011).

Test: Stability of Biolimus A9 at 40° C. with added anti-oxidant BHT
Assay type: physicochemical
From the text: The yield data of different amounts of anti-oxidant as added into Biolimus A9 with respect to time lapse of weeks are summarized in Table 1 as below-mentioned.

- Purity (%) of Biolimus A9 (BHT 0.0% (w/w), 0 week): 99.7%
- Purity (%) of Biolimus A9 (BHT 0.0% (w/w), 2 weeks): 98.2%
- Purity (%) of Biolimus A9 (BHT 0.0% (w/w), 4 weeks): 88.4%
- Purity (%) of Biolimus A9 (BHT 0.0% (w/w), 6 weeks): 69.7%
- Purity (%) of Biolimus A9 (BHT 0.1% (w/w), 0 week): 99.7%
- Purity (%) of Biolimus A9 (BHT 0.1% (w/w), 2 weeks): 99.5%
- Purity (%) of Biolimus A9 (BHT 0.1% (w/w), 4 weeks): 99.5%
- Purity (%) of Biolimus A9 (BHT 0.1% (w/w), 6 weeks): 99.5%
- Purity (%) of Biolimus A9 (BHT 0.2% (w/w), 0 week): 99.6%
- Purity (%) of Biolimus A9 (BHT 0.2% (w/w), 2 weeks): 99.6%
- Purity (%) of Biolimus A9 (BHT 0.2% (w/w), 4 weeks): 99.5%
- Purity (%) of Biolimus A9 (BHT 0.2% (w/w), 6 weeks): 99.5%
- Purity (%) of Biolimus A9 (BHT 0.5% (w/w), 0 week): 99.6%
- Purity (%) of Biolimus A9 (BHT 0.5% (w/w), 2 weeks): 99.5%
- Purity (%) of Biolimus A9 (BHT 0.5% (w/w), 4 weeks): 99.4%
- Purity (%) of Biolimus A9 (BHT 0.5% (w/w), 6 weeks): 99.4%
- Purity (%) of Biolimus A9 (BHT 1.0% (w/w), 0 week): 99.6%
- Purity (%) of Biolimus A9 (BHT 1.0% (w/w), 2 weeks): 99.5%
- Purity (%) of Biolimus A9 (BHT 1.0% (w/w), 4 weeks): 99.4%
- Purity (%) of Biolimus A9 (BHT 1.0% (w/w), 6 weeks): 99.4%
- yield after six-week storage (BHT added for 0.1%, 0.2, 0.5%, and 1% (w/w), six-week storage): more than 99.4%
Structure (SMILES): CCOCCO[C@@H]1CC[C@@H](C[C@@H](C)[C@@H]2CC(=O)[C@H](C)/C=C(\C)[C@@H](O)[C@@H](OC)C(=O)[C@H](C)C[C@H](C)/C=C/C=C/C=C(\C)[C@@H](OC)C[C@@H]3CC[C@@H](C)[C@@](O)(O3)C(=O)C(=O)N3CCCC[C@H]3C(=O)O2)C[C@H]1OC [Biolimus A9]
